Assay results from ChEMBL document CHEMBL4428061, “Effects of 5-O-Ribosylation of Aminoglycosides on Antimicrobial Activity and Selective Perturbation of Bacterial Translation” (J Med Chem, 2016).
Values after ≈ are worked out from the molar mass of the structure shown.

Key:
Haemophilus influenzae [1] = test: Antimicrobial activity against Haemophilus influenzae ATCC 49247 measured after 24 hrs by double-dilution method; assay type: functional; conditions: ATCC 49247, 24 h
Haemophilus influenzae [2] = test: Antimicrobial activity against Haemophilus influenzae ATCC 10211 measured after 24 hrs by double-dilution method; assay type: functional; conditions: ATCC 10211, 24 h
Escherichia coli [3] = test: Antimicrobial activity against Escherichia coli ATCC 25922 measured after 24 hrs by double-dilution method; assay type: functional; conditions: ATCC 25922, 24 h
[4] = Inhibition of cytosolic eukaryotic translation in rabbit reticulocyte S30 extract measured after 60 mins by coupled transcription/translation-based luciferase reporter gene assay; set-up: species or system Oryctolagus cuniculus
Acinetobacter baumannii = test: Antimicrobial activity against Acinetobacter baumannii ATCC 19606 measured after 24 hrs by double-dilution method; assay type: functional; conditions: ATCC 19606 = CIP 70.34 = JCM 6841, 24 h
Burkholderia cepacia = test: Antimicrobial activity against aminoglycoside-resistant Burkholderia cepacia ATCC 25416 measured after 24 hrs by double-dilution method; assay type: functional; conditions: ATCC 25416, 24 h
Escherichia coli [5] = test: Antimicrobial activity against aminoglycoside-resistant Escherichia coli ATCC BAA-2452 measured after 24 hrs by double-dilution method; assay type: functional; conditions: ATCC BAA-2452, 24 h
Ribosomal RNA A-site = test: Binding affinity to 16S rRNA A-site in Escherichia coli S30 extract assessed as inhibition of translation measured after 30 mins by coupled transcription/translation-based luciferase reporter gene assay; assay type: nucleic-acid assay
Klebsiella pneumoniae [6] = test: Antimicrobial activity against aminoglycoside-resistant Klebsiella pneumoniae ATCC BAA-2470 measured after 24 hrs by double-dilution method; assay type: functional; conditions: ATCC BAA-2470, 24 h
Klebsiella pneumoniae [7] = test: Antimicrobial activity against Klebsiella pneumoniae ATCC 10031 measured after 24 hrs by double-dilution method; assay type: functional; conditions: ATCC 10031, 24 h
Pseudomonas aeruginosa [8] = test: Antimicrobial activity against Pseudomonas aeruginosa ATCC 27853 measured after 24 hrs by double-dilution method; assay type: functional; conditions: ATCC 27853, 24 h
Pseudomonas aeruginosa [9] = test: Antimicrobial activity against Pseudomonas aeruginosa ATCC 47085 measured after 24 hrs by double-dilution method; assay type: functional; conditions: ATCC 47085, 24 h
Klebsiella pneumoniae [10] = test: Antimicrobial activity against Klebsiella pneumoniae ATCC 13883 measured after 24 hrs by double-dilution method; assay type: functional; conditions: ATCC 13883, 24 h
[11] = test system: cytosolic eukaryotic translation versus 16S rRNA A-site; test: Selectivity ratio, ratio of IC50 for cytosolic eukaryotic translation in rabbit reticulocyte S30 extract to IC50 for 16S rRNA A-site in Escherichia coli S30 extract; assay type: toxicity; conditions: read-out: Ratio IC50
[12] = Acute toxicity in iv dosed rat; assay type: organism-based; conditions: in vivo

Row | SMILES | MIC (Haemophilus influenzae [1]) [µg/mL] | MIC (Haemophilus influenzae [2]) [µg/mL] | MIC (Escherichia coli [3]) [µg/mL] | IC50 [4] [µM] | MIC (Acinetobacter baumannii) [µg/mL] | MIC (Burkholderia cepacia) [µg/mL] | MIC (Escherichia coli [5]) [µg/mL] | IC50 (Ribosomal RNA A-site) [µM] | MIC (Klebsiella pneumoniae [6]) [µg/mL] | MIC (Klebsiella pneumoniae [7]) [µg/mL] | MIC (Pseudomonas aeruginosa [8]) [µg/mL] | MIC (Pseudomonas aeruginosa [9]) [µg/mL] | MIC (Klebsiella pneumoniae [10]) [µg/mL] | selectivity ratio [11] | LD50 [12] [mg/kg]
1 | NC[C@H]1O[C@H](O[C@H]2[C@H](O[C@@H]3O[C@H](CO)[C@@H](O)[C@H]3O)[C@@H](O)[C@H](N)C[C@@H]2N)[C@H](N)C[C@@H]1O | 4 (≈ 9.12 µM) | 4 (≈ 9.12 µM) | 2 (≈ 4.56 µM) | 135 | 32 (≈ 73 µM) | > 32 | > 32 | 0.11 | > 32 | 4 (≈ 9.12 µM) | 4 (≈ 9.12 µM) | 4 (≈ 9.12 µM) | 8 (≈ 18.2 µM) | 1230 | 
2 | NC[C@H]1O[C@H](O[C@H]2[C@H](O)[C@@H](O[C@H]3O[C@H](CO)[C@@H](O)[C@H](N)[C@H]3O)[C@H](N)C[C@@H]2N)[C@H](N)[C@@H](O)[C@@H]1O [BEKANAMYCIN] | 4 (≈ 8.27 µM) | 2 (≈ 4.14 µM) | 4 (≈ 8.27 µM) | 28.9 | 4 (≈ 8.27 µM) | > 32 | > 32 | 0.04 | > 32 | 1 (≈ 2.07 µM) | > 32 | > 32 | 1 (≈ 2.07 µM) | 722 | 
3 | NCC[C@H](O)C(=O)N[C@@H]1C[C@H](N)[C@@H](O[C@H]2O[C@H](CN)[C@@H](O)[C@H](O)[C@H]2O)[C@H](O[C@@H]2O[C@H](CO)[C@@H](O)[C@H]2O)[C@H]1O[C@H]1O[C@H](CO)[C@@H](O)[C@H](N)[C@H]1O | > 32 | > 32 | > 32 | 193 | > 32 | > 32 | > 32 | 6.44 | > 32 | > 32 | > 32 | > 32 | > 32 | 30 | 
4 | NC[C@H]1O[C@H](O[C@H]2[C@H](O)[C@@H](O[C@H]3O[C@H](CO)[C@@H](O)[C@H](N)[C@H]3O)[C@H](N)C[C@@H]2N)[C@H](N)C[C@@H]1O [TOBRAMYCIN] | 4 (≈ 8.56 µM) | 4 (≈ 8.56 µM) | 2 (≈ 4.28 µM) | 42.3 | 2 (≈ 4.28 µM) | > 32 | > 32 | 0.07 | > 32 | 1 (≈ 2.14 µM) | 1 (≈ 2.14 µM) | 1 (≈ 2.14 µM) | 1 (≈ 2.14 µM) | 605 | 
5 | NC[C@H]1O[C@H](O[C@H]2[C@H](O[C@@H]3O[C@H](CO)[C@@H](O)[C@H]3O)[C@@H](O[C@H]3O[C@H](CO)[C@@H](O)[C@H](N)[C@H]3O)[C@H](N)C[C@@H]2N)[C@H](N)C[C@@H]1O | 8 (≈ 13.3 µM) | 8 (≈ 13.3 µM) | 4 (≈ 6.67 µM) | 49.1 | 32 (≈ 53.4 µM) | > 32 | > 32 | 0.08 | > 32 | 2 (≈ 3.34 µM) | 4 (≈ 6.67 µM) | 2 (≈ 3.34 µM) | 2 (≈ 3.34 µM) | 614 | 
6 | NC[C@H]1O[C@H](O[C@H]2[C@H](O[C@@H]3O[C@H](CO)[C@@H](O)[C@H]3O)[C@@H](O[C@H]3O[C@H](CO)[C@@H](O)[C@H](N)[C@H]3O)[C@H](N)C[C@@H]2N)[C@H](N)[C@@H](O)[C@@H]1O | 8 (≈ 13 µM) | 8 (≈ 13 µM) | 4 (≈ 6.5 µM) | 43.8 | > 32 | > 32 | > 32 | 0.03 | > 32 | 4 (≈ 6.5 µM) | > 32 | > 32 | 4 (≈ 6.5 µM) | 1460 | 
7 | NCC[C@H](O)C(=O)N[C@@H]1C[C@H](N)[C@@H](O[C@H]2O[C@H](CN)[C@@H](O)[C@H](O)[C@H]2O)[C@H](O)[C@H]1O[C@H]1O[C@H](CO)[C@@H](O)[C@H](N)[C@H]1O [AMIKACIN] | 32 (≈ 54.6 µM) | 32 (≈ 54.6 µM) | 2 (≈ 3.42 µM) | 64.6 | 4 (≈ 6.83 µM) | > 32 | > 32 | 0.07 | > 32 | 4 (≈ 6.83 µM) | 8 (≈ 13.7 µM) | 4 (≈ 6.83 µM) | 4 (≈ 6.83 µM) | 923 | 
8 | NC[C@H]1O[C@H](O[C@H]2[C@H](O)[C@@H](O)[C@H](N)C[C@@H]2N)[C@H](N)[C@@H](O)[C@@H]1O [NEAMINE] | 32 (≈ 99.3 µM) | 32 (≈ 99.3 µM) | 16 (≈ 49.6 µM) | 99 | > 32 | > 32 | > 32 | 0.46 | > 32 | 16 (≈ 49.6 µM) | > 32 | > 32 | 16 (≈ 49.6 µM) | 215 | 121 to 129
9 | NC[C@H]1O[C@H](O[C@H]2[C@H](O)[C@@H](O)[C@H](N)C[C@@H]2N)[C@H](N)C[C@@H]1O | > 32 | > 32 | 16 (≈ 52.2 µM) | 121 | > 32 | > 32 | > 32 | 0.43 | > 32 | > 32 | > 32 | > 32 | > 32 | 282 | 
10 | NC[C@H]1O[C@H](O[C@H]2[C@H](O[C@@H]3O[C@H](CO)[C@@H](O)[C@H]3O)[C@@H](O)[C@H](N)C[C@@H]2N)[C@H](N)[C@@H](O)[C@@H]1O [RIBOSTAMYCIN] | 8 (≈ 17.6 µM) | 8 (≈ 17.6 µM) | 4 (≈ 8.8 µM) | 116 | 16 (≈ 35.2 µM) | > 32 | > 32 | 0.09 | > 32 | 8 (≈ 17.6 µM) | > 32 | > 32 | 8 (≈ 17.6 µM) | 1290 | 
11 | NC[C@H]1O[C@H](O[C@H]2[C@H](O)[C@@H](O[C@H]3O[C@H](CO)[C@@H](O)[C@H](N)[C@H]3O)[C@H](N)C[C@@H]2N)[C@H](O)[C@@H](O)[C@@H]1O [KANAMYCIN] | 8 (≈ 16.5 µM) | 8 (≈ 16.5 µM) | 4 (≈ 8.26 µM) | 111 | 8 (≈ 16.5 µM) | > 32 | > 32 | 0.1 | > 32 | 4 (≈ 8.26 µM) | > 32 | > 32 | 4 (≈ 8.26 µM) | 1110 | 
